Results from the Kinase Knowledgebase extract (Sharma et al. 2016).

Biological target: EGFR (UniProt P00533)
Sequence (P00533 whole entry, looked up): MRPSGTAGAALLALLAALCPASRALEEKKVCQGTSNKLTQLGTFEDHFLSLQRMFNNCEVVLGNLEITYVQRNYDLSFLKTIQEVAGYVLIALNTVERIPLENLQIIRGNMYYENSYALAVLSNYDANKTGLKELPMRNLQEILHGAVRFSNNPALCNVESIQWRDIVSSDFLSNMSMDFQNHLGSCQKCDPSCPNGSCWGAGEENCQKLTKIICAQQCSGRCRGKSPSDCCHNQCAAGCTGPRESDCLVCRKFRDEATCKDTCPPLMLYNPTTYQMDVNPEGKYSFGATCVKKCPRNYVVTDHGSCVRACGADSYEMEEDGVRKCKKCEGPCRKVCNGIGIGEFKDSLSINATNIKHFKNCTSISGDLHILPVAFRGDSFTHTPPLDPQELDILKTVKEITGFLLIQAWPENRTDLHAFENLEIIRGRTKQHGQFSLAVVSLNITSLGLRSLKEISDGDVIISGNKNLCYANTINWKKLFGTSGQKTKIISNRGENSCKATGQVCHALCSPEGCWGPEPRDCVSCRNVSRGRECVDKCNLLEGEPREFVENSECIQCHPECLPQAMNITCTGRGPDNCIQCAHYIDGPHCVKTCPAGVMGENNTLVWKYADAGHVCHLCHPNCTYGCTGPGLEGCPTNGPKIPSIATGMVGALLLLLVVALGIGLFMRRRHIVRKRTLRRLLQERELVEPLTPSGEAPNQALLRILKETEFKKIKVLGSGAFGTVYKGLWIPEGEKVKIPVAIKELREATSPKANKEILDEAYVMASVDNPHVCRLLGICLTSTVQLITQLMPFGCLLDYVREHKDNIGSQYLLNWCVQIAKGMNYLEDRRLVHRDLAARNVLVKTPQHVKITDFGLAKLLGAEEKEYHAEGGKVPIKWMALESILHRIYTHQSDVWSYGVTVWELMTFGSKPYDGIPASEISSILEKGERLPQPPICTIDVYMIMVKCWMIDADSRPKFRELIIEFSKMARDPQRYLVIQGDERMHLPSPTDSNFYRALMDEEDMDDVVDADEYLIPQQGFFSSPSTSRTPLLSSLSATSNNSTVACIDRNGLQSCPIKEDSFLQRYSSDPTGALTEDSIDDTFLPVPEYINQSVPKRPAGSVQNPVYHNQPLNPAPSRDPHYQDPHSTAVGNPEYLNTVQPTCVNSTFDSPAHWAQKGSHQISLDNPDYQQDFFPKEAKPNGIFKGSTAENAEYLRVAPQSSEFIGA

IC50, 0.003 to 25 µM:
Cc1c(NC(=O)NCCCN2CCOCC2)cn2ncnc(C3C(=O)Nc4ccccc43)c12 (stereo not drawn)
CCOC(=O)c1cn2ncnc(Nc3ccc(C)c(O)c3)c2c1CC
Cc1c(N)cn2ncnc(C3C(=O)Nc4ccccc43)c12 (stereo not drawn)
COC(=O)c1cn2ncnc(Nc3cccc(NC(C)=O)c3)c2c1C
Cc1c(C(=O)NCCCN2CCN(C)CC2)cn2ncnc(C3C(=O)Nc4ccccc43)c12 (stereo not drawn)
Cc1ccc(Nc2ncnn3cc(C(=O)NCCCS(C)(=O)=O)c(C)c23)cc1O
Cc1nc(C2C(=O)Nc3ccccc32)c2c(C)c(C(=O)NCCN3CCCC3)cn2n1 (stereo not drawn)
CCc1nc(C2C(=O)Nc3ccccc32)c2c(C)c(C(=O)NCCCN(C)C)cn2n1 (stereo not drawn)
COC(=O)c1cn2ncnc(Nc3ccc(C(C)C)c(O)c3)c2c1C
COC(=O)c1cn2ncnc(C3C(=O)Nc4ncccc43)c2c1C (stereo not drawn)
COC(=O)c1cn2ncnc(Nc3ccc(Br)cc3F)c2c1C
COC(=O)c1cn2ncnc(Nc3cc(O)c4ccccc4c3)c2c1C
COC(=O)c1cn2ncnc(Nc3ccc(C)c(C#N)c3)c2c1C
Cc1c(NS(C)(=O)=O)cn2ncnc(C3C(=O)Nc4ccccc43)c12 (stereo not drawn)
COC(=O)c1cn2ncnc(C3C(=O)Nc4ccc(S(=O)(=O)NCCO)cc43)c2c1C (stereo not drawn)
COC(=O)c1cn2ncnc(Nc3ccc(C)c(O)c3)c2c1C
CCc1c(C)c2c(Nc3ccc(C)c(O)c3)ncnn2c1C
COC(=O)c1cn2ncnc(Nc3ccc4c(cnn4Cc4ccccc4)c3)c2c1C
COc1cn2ncnc(Nc3ccc(C)c(O)c3)c2c1OC
CCc1c(C(=O)O)cn2ncnc(Nc3ccc(OC)nc3)c12
COC(=O)c1cn2ncnc(Nc3cc(NS(C)(=O)=O)ccc3C)c2c1C
Cc1c(C(=O)NCCCn2nccn2)cn2ncnc(C3C(=O)Nc4ccccc43)c12 (stereo not drawn)
Cc1c(C(=O)NCCCN2CCOCC2)cn2ncnc(C3C(=O)Nc4ccc(S(N)(=O)=O)cc43)c12 (stereo not drawn)
COC(=O)c1cn2ncnc(Nc3cccc(S(=O)(=O)O)c3)c2c1C
Cc1ccc(Nc2ncnn3cc(C(=O)NCCCN4CCOCC4)c(C)c23)cc1O
Cc1ccc(Nc2ncnn3cc(C(=O)OCc4ccccc4)c(C)c23)cc1O
CCc1c(C(=O)OC)cn2ncnc(Nc3ccc(OC)nc3)c12
Cc1c(C(=O)NCCN2CCCC2)cn2ncnc(C3C(=O)Nc4ccccc43)c12 (stereo not drawn)
COc1c(N)cn2ncnc(C3C(=O)Nc4ccccc43)c12 (stereo not drawn)
Cc1c(NC(=O)NCCCCN2CCOCC2)cn2ncnc(C3C(=O)Nc4ccccc43)c12 (stereo not drawn)
COC(=O)c1cn2ncnc(Nc3ccc4c(c3)OCCO4)c2c1C
COC(=O)c1cn2ncnc(Nc3ccc4c(c3)C(=O)NC4=O)c2c1C
COC(=O)c1cn2ncnc(Nc3ccc(NS(=O)(=O)c4ccccc4)c(O)c3)c2c1C
COC(=O)c1cn2ncnc(Nc3cccc(O)c3C)c2c1C
CCOC(=O)c1cn2ncnc(Nc3ccccc3)c2c1CC
COC(=O)c1cn2ncnc(Nc3cc[nH]n3)c2c1C
Fc1cc(Cl)ccc1Nc1ncnn2cccc12
Cc1ccc(Nc2ncnn3cc(C(=O)NCCCN4CCN(C)CC4)c(C)c23)cc1O
COC(=O)c1cn2ncnc(Nc3cccc(NS(C)(=O)=O)c3)c2c1C
CCCc1c(C(=O)OCC)cn2ncnc(Nc3ccc(C)c(O)c3)c12
COC(=O)c1cn2ncnc(C3C(=O)Nc4cc(C(F)(F)F)ccc43)c2c1C (stereo not drawn)
CCCc1c(C(=O)OCC)cn2ncnc(Nc3ccc4c(cnn4Cc4ccccc4)c3)c12
Cc1c(C(=O)NCCCn2ccnc2C)cn2ncnc(C3C(=O)Nc4ccccc43)c12 (stereo not drawn)
CCOC(=O)c1cn2ncnc(C3C(=O)Nc4ccccc43)c2c1OCC (stereo not drawn)
CCOC(=O)c1cn2ncnc(C3C(=O)Nc4ccccc43)c2c1OC (stereo not drawn)
CCOC(=O)c1cn2ncnc(NCc3cccc(Br)c3)c2c1CC
Cc1c(NC(=O)NCCN2CCOCC2)cn2ncnc(C3C(=O)Nc4ccccc43)c12 (stereo not drawn)
CCOC(=O)c1cn2ncnc(Cc3ccc(F)c(Cl)c3)c2c1C(C)C
CCc1c(NC(=O)OCc2ccccc2)cn2ncnc(Nc3ccc(OC)nc3)c12
CCOC(=O)c1cn2ncnc(Nc3ccc(C)c(N)c3)c2c1CC
COC(=O)c1cn2ncnc(C3C(=O)Nc4ccc(F)cc43)c2c1C (stereo not drawn)
COC(=O)c1cn2ncnc(Nc3ccc(NC(C)=O)nc3)c2c1C
CCOC(=O)c1cn2ncnc(NCc3ccccc3Br)c2c1CC
COC(=O)c1cn2ncnc(N3CCc4ccccc43)c2c1C
COC(=O)c1cn2ncnc(Oc3cccc(O)c3)c2c1C
COC(=O)c1cn2ncnc(-n3c(=O)[nH]c4ccccc43)c2c1C
COC(=O)c1cn2ncnc(Nc3ccccc3S(N)(=O)=O)c2c1C
CCc1c(C(=O)OC)cn2ncnc(Nc3ccc4c(cnn4Cc4ccccc4)c3)c12
